Literature values in the CATMoS acute toxicity set (Mansouri et al. 2021).
Where “and” joins values, the source holds several entries; their conditions need not be identical. Identical values can stand only once. *1 amine or outer side, *2 acyl side, *3 side chain or, on linkers, in order; H or OH if unused. Where a SMILES comes first, the peptide text is derived from it. Bridges are numbered along the chain shown (N, C = ends). Roman numbers before positions name the chains, in order. [ ]: non-standard residue; d: D form. Actinocin(9to1) = Cc1c2oc3c(C)ccc(C(=O)[*:1])c3nc-2c(C(=O)[*:2])c(N)c1=O; NMeV = CN[C@H](C(=O)O)C(C)C; Sar = CNCC(=O)O

Assay: rat acute oral toxicity
Conditions: in vivo

Row | SMILES | LD50
1 | NC(=S)SSC(N)=S | 1950 mg/kg
2 | COc1cc2c(cc1OC)[C@@]13CCN4CC5=CCO[C@H]6CC(=O)N2[C@H]1[C@H]6[C@H]5C[C@H]43 | 1 mg/kg
3 | CCCCC(CC)COC(CBr)c1ccc(Cl)c(Cl)c1 (configuration not stated) | 250 mg/kg
4 | CCOC(C1=NCC(C)(C)CN1)c1ccc(C(C)C)cc1 (configuration not stated) | 220 mg/kg
5 | COc1cccc(CCc2ccccc2OCC(CN(C)C)OC(=O)CCC(=O)O)c1 (configuration not stated) | 4400 mg/kg
6 | CN(C)C(CSC#N)CSC#N | 125 mg/kg and 82 mg/kg
7 | O=[N+]([O-])c1ccc(/C=N/NC(=S)N2CCCC2)o1 | 750 mg/kg
8 | CC1(C)CC(=O)C(N)C(C)(C)N1 (configuration not stated) | 920 mg/kg
9 | CCOC(=O)COP(=S)(OCC)OCC | 1000 mg/kg
10 | Cn1c(CCCC(=O)O)nc2cc(N(CCCl)CCCl)ccc21 | 200 mg/kg
11 | NC(=S)Nc1cccc(Cl)c1 | 25 mg/kg
12 | COc1cccc([C@@]2(O)CCCC[C@H]2CN(C)C)c1 | 228 mg/kg
13 | CCOP(=S)(OCC)OC(=CCl)c1ccc(Cl)cc1Cl | 10 mg/kg
14 | CO[C@@H]1[C@@H](O)[C@@H](O)[C@H](O[C@@H]2C=C3CC[C@@H]4[C@H](CC[C@]5(C)[C@@H](c6ccc(=O)oc6)CC[C@]45O)[C@@]3(C)CC2)O[C@H]1C | 79 mg/kg
15 | Cc1ccc(N(CC2=NCCN2)c2cccc(O)c2)cc1 | 1250 mg/kg
16 | FC(F)(Cl)C(Cl)Cl | 3290 mg/kg
17 | CCOC(=O)C(c1c(O)c2ccccc2oc1=O)c1c(O)c2ccccc2oc1=O | 840 mg/kg
18 | CCN(N=O)C(C)OC (configuration not stated) | 1000 mg/kg
19 | O=C(c1ccccc1)c1ccc2n1CC[C@H]2C(=O)O | 189 mg/kg
20 | CC(=C\c1ccccc1)/C=C1/SC(=S)N(CC(=O)O)C1=O | 5.3 mg/kg
21 | CCCOC(=O)C1COc2ccccc2O1 (configuration not stated) | 7450 mg/kg
22 | CC1(c2ccccc2)OC(C(=O)O)=CC1=O (configuration not stated) | 3000 mg/kg
23 | Cc1nn(C)c(OCC(=O)c2ccccc2)c1C(=O)c1ccc(Cl)cc1Cl | 1640 mg/kg

Row | SMILES | LD50
24 | CCCCCCC(C)I (configuration not stated) | 8200 mg/kg
25 | COc1ccc2c(c1)OC(C)(C)C(c1ccccc1)=C2c1ccc(OCC(O)CNC(C)C)cc1 (configuration not stated) | 1000 mg/kg
26 | CCc1c(C)nc2ccccn2c1=O | 1000 mg/kg
27 | Cc1cc(O)c(C(C)(C)C)cc1Sc1cc(C(C)(C)C)c(O)cc1C | 2340 mg/kg
28 | NC(=O)c1cc(C(=O)CBr)ccc1O | 800 mg/kg
29 | CN(SSN(C)C(=O)ON=C1CSCCS1)C(=O)ON=C1CSCCS1 | 160 mg/kg
30 | C#CC(C)N(C)C(=O)Nc1ccc(Cl)cc1 (configuration not stated) | 1790 mg/kg
31 | C[N+]1(C)CCC(OC(=O)C(O)(c2ccccc2)c2cccs2)C1 (configuration not stated) | 3580 mg/kg
32 | CC(C)COCC(CN(Cc1ccccc1)c1ccccc1)N1CCCC1 (configuration not stated) | 6850 mg/kg
33 | CC[C@H](C)N | 380 mg/kg
34 | Cc1cccc(I)c1 | 2300 mg/kg
35 | O=S1(=O)OCC2C(CO1)C1(Cl)C(Cl)=C(Cl)C2(Cl)C1(Cl)Cl (configuration not stated) | 18 mg/kg
36 | CCCN(CCC)C(=O)SCc1ccccc1 | 1820 mg/kg
37 | COc1ccc(OC)c2[nH]c(C(F)(F)F)nc12 | 60 mg/kg
38 | Cc1nc2sccn2c1/C=N/NC(=O)CN(C)C | 1500 mg/kg
39 | N#CCCC[Si](Cl)(Cl)Cl | 2830 mg/kg
40 | CCC(C)OC(C[n+]1ccccc1)c1cccc(Cl)c1 (configuration not stated) | 250 mg/kg
41 | O=Cc1ccccc1-c1ccccc1C=O | 2830 mg/kg
42 | NS(=O)(=O)CCNC(=O)N(CCCl)N=O | 40 mg/kg
43 | CC1(C)C(C(=O)OC(C#N)c2cccc(Oc3ccccc3)c2)C1(C)C (configuration not stated) | 18 mg/kg
44 | S=c1[nH]nc(NCNc2n[nH]c(=S)s2)s1 | 4640 mg/kg
45 | CCOP(=S)(OCC)OCCS(=O)(=O)CC | 90 mg/kg
46 | CN(C)C(=S)SCN1CCOCC1 | 1500 mg/kg

Row | SMILES | LD50
47 | O=C(OCC(Cl)(Cl)Cl)c1ccco1 | 600 mg/kg
48 | COP(=S)(OC)SCSc1ccc(Cl)c(Cl)c1 | 220 mg/kg
49 | CCOC(=O)C1(c2ccccc2)CCN(C)CC1 | 170 mg/kg
50 | CC1(C)S[C@@H]2[C@H](NC(=O)Cc3ccccc3)C(=O)N2[C@H]1C(=O)O | 8900 mg/kg and 8000 mg/kg and 6920 mg/kg
51 | CNC1=Nc2ccc(Cl)cc2C(c2ccccc2)=[N+]([O-])C1 | 537 mg/kg
52 | Cc1c2oc3c(C)ccc(C(=O)N[C@@H]4C(=O)N[C@H](C(C)C)C(=O)N5CCC[C@H]5C(=O)N(C)CC(=O)N(C)[C@@H](C(C)C)C(=O)O[C@@H]4C)c3nc-2c(C(=O)N[C@@H]2C(=O)N[C@H](C(C)C)C(=O)N3CCC[C@H]3C(=O)N(C)CC(=O)N(C)[C@@H](C(C)C)C(=O)O[C@@H]2C)c(N)c1=O (I: T[dV]P[Sar][NMeV] / II: T[dV]P[Sar][NMeV]; ester I:1-I:C, II:1-II:C; linker I:N-II:N via Actinocin(9to1)) | 7.2 mg/kg
53 | CCC(CC)COCCOC(=O)CCCCC(=O)OCCOCC(CC)CC | 3250 mg/kg
54 | COC12C(COC(N)=O)C3=C(C(=O)C(C)=C(N)C3=O)N1CC1C2N1C (configuration not stated) | 68 mg/kg
55 | Cc1cc(Cl)ccc1O | 1190 mg/kg
56 | C=COCCOCCCC | 3100 mg/kg
57 | CCCCCCC(C)P(=O)(C(C)CCCCCC)C(C)CCCCCC (configuration not stated) | 7270 mg/kg
58 | COc1cccc(C(=O)CCN[C@@H](C)[C@H](O)c2ccccc2)c1 | 500 mg/kg
59 | CCSP(=O)(OC)OC | 13.8 mg/kg
60 | NC(=O)CBr | 100 mg/kg
61 | Cc1ccnc(N)c1 | 200 mg/kg
62 | O=S1(=O)CCCCO1 | 500 mg/kg
63 | CN1C(=O)CC(=O)N(c2ccccc2)c2cc(Cl)ccc21 | 6000 mg/kg
64 | CN(C)/N=N/c1ccccc1C(=N)O | 56 mg/kg
65 | CC(C)=CC(=O)O | 3560 mg/kg
66 | O=C(Cl)CCl | 208 mg/kg
67 | CC(C)=CCC/C(C)=C\CO | 4500 mg/kg
